Results: patent publication US9956181B2, “Composition of nanoformulated lycopene and method of using the composition” (priority 2015, dated 2018)

Tests used:
[1] = test system: ovariectomized (OVX) rats; experiment: OVX rat study: serum minerals, enzymes and hormones; assay type: in vivo, Wistar rats
Method: A total of 264 Wistar female rats, ˜6 months old, were supplied by the Animal House at King Fahd Medical Research Center (KFMRC), KAU. Rats were housed in individual cages and maintained at 22° C. with a 12-h light/dark cycle. During the study period, rats were given standard rodent chow diet ad libitum (commercial rat cubes containing approximately 18% protein, 3% fat, 77% carbohydrate, and 2% of an inorganic-salt mixture with a vitamin supplement by weight, supplied by Grain Silos and Flour Mills Organization, Jeddah, Saudi Arabia) and water until the onset of intervention. Prior to surgery, rats were anesthetized with ketamine [(10% ketamine hydrochloride (80 mg/kg body weight), Cayman Chemical, Michigan, USA] and xylazine [(2% xylazine hydrochloride, 10 mg/kg body weight), Sigma-Aldrich Co., St. Louis, USA]. A single longitudinal skin incision was made on the dorsal midline at the level of the kidneys and both ovaries were ligated and removed to produce an ovariectomy in all OVX group animals. A SHAM-operated group, acting as a negative control for the effect of ovariectomy on bone parameters, underwent bilateral laparotomy, during which the ovaries were exposed but remained intact. […] The lycopene-supplemented groups were given lycopene (15, 30 and 45 mg/kg body weight per day) dissolved in corn oil by daily intra-gastric administration for the experimental period of 12 weeks. The SHAM, OVX and ALN control groups were given the same volume of corn oil without lycopene treatment. […] A 12-week randomized placebo-controlled study in order to examine the protective effects of lycopene supplementation on bone mass and fragility in OVX rats was concluded. Prior to surgery, body weight and bone mineral density (BMD) were obtained for all animals. Rats were randomized using a computer-generated randomization code into one of six groups: (1) sham-operated (SHAM; n=44); (2) ovariectomized control (OVX; n=44); (3) OVX lycopene-supplemented (15 mg/kg body weight per day) (n=44); (4) OVX lycopene-supplemented (30 mg/kg body weight per day) (n=44); (5) OVX lycopene-supplemented (45 mg/kg body weight per day) (n=44) and (6) OVX alendronate-treated (ALN) [2.0 μg/kg body weight per day subcutaneously (sc)] (n=44). Alendronate is an anti-resorptive agent for the treatment of osteoporosis and was used as a positive therapy control. […] All OVX groups were pair-fed with the SHAM group throughout the study to avoid the possible effects of ovariectomy-induced over-consumption and subsequent excessive weight gain. Treatment started 1 week after the surgery: this period of rest allowed the rats to recover from the stress associated with the surgery. […] Peripheral Quantitative CT (pQCT) scans were made of the proximal tibia metaphysis and the diaphysis. […]

[2] = test system: ovariectomized (OVX) rats; experiment: OVX rat study: in vivo DXA densitometry of lumbar spine and humerus; parameters: species or system Wistar rats; conditions: 12 weeks, versus OVX control
Method: A total of 264 Wistar female rats, ˜6 months old, were supplied by the Animal House at King Fahd Medical Research Center (KFMRC), KAU. Rats were housed in individual cages and maintained at 22° C. with a 12-h light/dark cycle. During the study period, rats were given standard rodent chow diet ad libitum (commercial rat cubes containing approximately 18% protein, 3% fat, 77% carbohydrate, and 2% of an inorganic-salt mixture with a vitamin supplement by weight, supplied by Grain Silos and Flour Mills Organization, Jeddah, Saudi Arabia) and water until the onset of intervention. Prior to surgery, rats were anesthetized with ketamine [(10% ketamine hydrochloride (80 mg/kg body weight), Cayman Chemical, Michigan, USA] and xylazine [(2% xylazine hydrochloride, 10 mg/kg body weight), Sigma-Aldrich Co., St. Louis, USA]. A single longitudinal skin incision was made on the dorsal midline at the level of the kidneys and both ovaries were ligated and removed to produce an ovariectomy in all OVX group animals. A SHAM-operated group, acting as a negative control for the effect of ovariectomy on bone parameters, underwent bilateral laparotomy, during which the ovaries were exposed but remained intact. […] Peripheral Quantitative CT (pQCT) scans were made of the proximal tibia metaphysis and the diaphysis. […]

[3] = test system: ovariectomized (OVX) rats; experiment: OVX rat study: dynamic bone histomorphometry of tibial metaphysis and diaphysis; assay type: in vivo, Wistar rats
Method: (§1) A total of 264 Wistar female rats, ˜6 months old, were supplied by the Animal House at King Fahd Medical Research Center (KFMRC), KAU. Rats were housed in individual cages and maintained at 22° C. with a 12-h light/dark cycle. During the study period, rats were given standard rodent chow diet ad libitum (commercial rat cubes containing approximately 18% protein, 3% fat, 77% carbohydrate, and 2% of an inorganic-salt mixture with a vitamin supplement by weight, supplied by Grain Silos and Flour Mills Organization, Jeddah, Saudi Arabia) and water until the onset of intervention. Prior to surgery, rats were anesthetized with ketamine [(10% ketamine hydrochloride (80 mg/kg body weight), Cayman Chemical, Michigan, USA] and xylazine [(2% xylazine hydrochloride, 10 mg/kg body weight), Sigma-Aldrich Co., St. Louis, USA]. A single longitudinal skin incision was made on the dorsal midline at the level of the kidneys and both ovaries were ligated and removed to produce an ovariectomy in all OVX group animals. A SHAM-operated group, acting as a negative control for the effect of ovariectomy on bone parameters, underwent bilateral laparotomy, during which the ovaries were exposed but remained intact. […] The lycopene-supplemented groups were given lycopene (15, 30 and 45 mg/kg body weight per day) dissolved in corn oil by daily intra-gastric administration for the experimental period of 12 weeks. The SHAM, OVX and ALN control groups were given the same volume of corn oil without lycopene treatment. […] A 12-week randomized placebo-controlled study in order to examine the protective effects of lycopene supplementation on bone mass and fragility in OVX rats was concluded. Prior to surgery, body weight and bone mineral density (BMD) were obtained for all animals. Rats were randomized using a computer-generated randomization code into one of six groups: (1) sham-operated (SHAM; n=44); (2) ovariectomized control (OVX; n=44); (3) OVX lycopene-supplemented (15 mg/kg body weight per day) (n=44); (4) OVX lycopene-supplemented (30 mg/kg body weight per day) (n=44); (5) OVX lycopene-supplemented (45 mg/kg body weight per day) (n=44) and (6) OVX alendronate-treated (ALN) [2.0 μg/kg body weight per day subcutaneously (sc)] (n=44). Alendronate is an anti-resorptive agent for the treatment of osteoporosis and was used as a positive therapy control. […] All OVX groups were pair-fed with the SHAM group throughout the study to avoid the possible effects of ovariectomy-induced over-consumption and subsequent excessive weight gain. Treatment started 1 week after the surgery: this period of rest allowed the rats to recover from the stress associated with the surgery. In addition, after surgery, rats were administered Diclofenac sodium injection (20 mg/Kg body weight) to reduce the pain associated with the surgery. Rats were weighed and examined daily. Blood and urine samples were collected at baseline, during, and at the end of treatment for measurement of various BTMs and other analytes. In vivo dual energy x-ray absorptiometry (DXA) measurements were made for the bone mineral content (BMC) and BMD of the whole body, lumbar spine (L1-L4), and the right humerus, together with body composition at 12 weeks of treatment. One day following the post-test DXA assessments (at 12 weeks, 16 rats in each group), animals were euthanized by decapitation and right and left femurs were extracted for further biomechanical and histomorphometric analyses. Blood and urine samples were collected from all experimental groups to measure biochemical analytes and BTMs at baseline and 4, 8, and 12 weeks of treatment. Peripheral Quantitative CT (pQCT) scans were made of the proximal tibia metaphysis and the diaphysis. In vivo micro-computed tomographic (μCT) scans of the proximal tibia were obtained during the treatment period to monitor changes in bone mass and microarchitecture. […]

[4] = test system: ovariectomized (OVX) rats; experiment: OVX rat study: ex vivo μCT analysis of tibial metaphysis and femur diaphysis; assay type: in vivo, Wistar rats
Method: as §1

[5] = test system: ovariectomized (OVX) rats; experiment: OVX rat study: ex vivo pQCT and biomechanical testing of lumbar spine and femur; assay type: in vivo, Wistar rats; conditions: 12 weeks
Method: as §1, with “One day following the post-test DXA assessments (at 12 weeks, 16 rats in each group), animals were euthanized by decapitation and right and left femurs were extracted for further biomechanical and histomorphometric analyses. Blood and urine samples were collected from all experimental groups to measure biochemical analytes and BTMs at baseline and 4, 8, and 12 weeks of treatment.” left out, “diaphysis.” for “diaphysis. In vivo micro-computed tomographic (μCT) scans of the proximal tibia were obtained during the treatment period to monitor changes in bone mass and microarchitecture.”

[6] = OVX rat study: serum and liver lycopene by HPLC; assay type: in vivo, Wistar rats
Method: A total of 264 Wistar female rats, ˜6 months old, were supplied by the Animal House at King Fahd Medical Research Center (KFMRC), KAU. Rats were housed in individual cages and maintained at 22° C. with a 12-h light/dark cycle. During the study period, rats were given standard rodent chow diet ad libitum (commercial rat cubes containing approximately 18% protein, 3% fat, 77% carbohydrate, and 2% of an inorganic-salt mixture with a vitamin supplement by weight, supplied by Grain Silos and Flour Mills Organization, Jeddah, Saudi Arabia) and water until the onset of intervention. Prior to surgery, rats were anesthetized with ketamine [(10% ketamine hydrochloride (80 mg/kg body weight), Cayman Chemical, Michigan, USA] and xylazine [(2% xylazine hydrochloride, 10 mg/kg body weight), Sigma-Aldrich Co., St. Louis, USA]. A single longitudinal skin incision was made on the dorsal midline at the level of the kidneys and both ovaries were ligated and removed to produce an ovariectomy in all OVX group animals. A SHAM-operated group, acting as a negative control for the effect of ovariectomy on bone parameters, underwent bilateral laparotomy, during which the ovaries were exposed but remained intact. […] The lycopene-supplemented groups were given lycopene (15, 30 and 45 mg/kg body weight per day) dissolved in corn oil by daily intra-gastric administration for the experimental period of 12 weeks. The SHAM, OVX and ALN control groups were given the same volume of corn oil without lycopene treatment. […] A 12-week randomized placebo-controlled study in order to examine the protective effects of lycopene supplementation on bone mass and fragility in OVX rats was concluded. Prior to surgery, body weight and bone mineral density (BMD) were obtained for all animals. […] Peripheral Quantitative CT (pQCT) scans were made of the proximal tibia metaphysis and the diaphysis. […]

[7] = lycopene 15-45 mg/kg/day, 12 weeks, range over doses
[8] = 12 weeks, lycopene, ALN 2.0 μg/kg/day, P<0.001

## CC(C)=CCC/C(C)=C/C=C/C(C)=C/C=C/C(C)=C/C=C/C=C(C)/C=C/C=C(C)/C=C/C=C(\C)CCC=C(C)C [lycopene]
[1]; OVX lycopene-treated groups, dose-dependent, P<0.001
  serum E2: significantly increased
[1]; OVX rats, lycopene treatment
  elevated serum FSH and LH levels: attenuated
[1]; OVX rats, lycopene 45 mg/kg/day, ALN 2.0 μg/kg/day sc, P<0.001
  serum PTH values versus other groups: significantly higher
[2]
  OVX-induced bone loss (BMC and BMD, lumbar spine and humerus, DXA): significantly prevented
[3]; OVX rats, lycopene, P<0.001
  osteoclast surface (Oc.S/BS) and osteoclast number (N.Oc/BS): significant decreases
[3]; OVX rats, lycopene, tibial metaphysis
  bone formation parameters (Ob.S/BS, MS/BS, BFR/BS, BFR/BV): prevented OVX-induced increases
[3]; [7]
  increase in BV/TV, tibial metaphysis (histomorphometry), compared with OVX control: 27.1-92.2%
  increase in Tb.N, tibial metaphysis (histomorphometry), compared with OVX control: 9.2-72.9%
[3]; lycopene greater than 15 mg/kg body weight per day, tibial diaphysis
  OVX-related increases in endocortical bone turnover formation (Ec.L.Pm/Ec.Pm, Ec MAR, Ec.BFR/BS): completely prevented
[3]; lycopene, except at 45 mg/kg body weight per day
  bone dynamics on the periosteal surface: positively affected
[4]; [8]
  decrease in Tb.Sp, tibia metaphysis (μCT), compared with OVX group: 46.8%
  increase in BV/TV, tibia metaphysis (μCT), compared with OVX group: 123.9%
  increase in Tb.N, tibia metaphysis (μCT), compared with OVX group: 52.8%
[4]; 12 weeks, lycopene, P<0.001
  increase in Tb.Th, tibia metaphysis (μCT), compared with OVX group: 78.4%
[4]; OVX rats, 12 weeks
  relative bone volume (BV/TV) of the femur diaphysis (μCT): nor lycopene or ALN treatment had significant effects
[4]; lycopene 30 and 45 mg/kg/day, ALN, versus SHAM and OVX groups
  femoral cortical values for Ct.Th and Ct.Po (μCT): improved
[5]; lycopene particularly 45 mg/kg/day, alendronate 2.0 μg/kg/day
  OVX-induced decrease in cortical thickness: prevented the decrease
[5]; lycopene particularly 30 and 45 mg/kg/day, ALN 2.0 μg/kg/day, P<0.05
  lumbar spine biomechanical / bone strength parameters: improved
[5]; lycopene, values comparable to SHAM
  effects of OVX on bone strength parameters in the femur diaphysis: prevented the negative effects
[6]; 30 and 45 mg/kg body weight per day groups
  Liver lycopene levels versus 15 mg/kg per day group: significantly higher
[6]; female, Wistar, rat, serum, 45 mg/kg/day, OVX rats, at 12 weeks, 45 mg/kg body weight per day oral, read-out: Serum lycopene levels
  concentration at 12 weeks: 71.5 ± 4.65 nM
[6]; rats treated with lycopene, dose-dependent fashion
  lycopene in serum and livers: detected
